Source: patent US11123332B2 (priority 2018, dated 2021)
Entries after “also recorded” stand apart in the source; their conditions may differ. Where two headings read alike, the source gives them in different places.

Assays:
insomnia = conditions: three-month efficacy study; cited from earlier work
mouse = assay: forced swim test; assay type: in vivo; conditions: for time spent in floating (immobility) during a 6 min forced swim: compared to control vehicle-treated group, FIG. 5; for time spent floating in forced swim: single dose 10 mg/kg, vs vehicle
Experimental: The forced swim test is a frequently used behavioral protocol with a well-established therapeutic predictability for a broad range of antidepressants including ketamine (Porsolt et al. 1977; Cryan and Mombereau 2004; Cryan et al. 2005; Lucki et al. 2001). In this test the mouse is put in a beaker filled with water and the time spent struggling, swimming and floating is measured, with the time spent floating when the mouse stops struggling to swim—being used as a behavioral correlate of depression.

[1] = cited from earlier work; for Apparent t1/2: harmonic mean N = 10; for Tmax: median N = 10
[2] = test system: combined delta, theta and alpha activity; conditions: 160 minutes after the first treatment; Nutt et al (2015); cited from earlier work
[3] = test system: mouse brain (c-fos expression)
From the text: A unique and novel approach to preclinical testing of psychiatric drugs is based on the proposition that a direct readout of drug-evoked brain activation or inhibition in an animal is the most relevant preclinical assay, because psychiatric drugs exert their effects via activation or inhibition of specific neural circuits and cell types in the brain. […] The method called “pharmacomapping” (implemented by Certerra, Inc. Farmingdale, N.Y.) is based on a largely automated drug-screening platform that comprises whole-brain detection of drug-evoked neuronal activation represented by drug-evoked expression of the immediate early gene (IEG) c-fos (Herrera and Robertson 1996). Until now, the detection of c-fos as a marker of brain activation has been done by laborious methods of in situ hybridization or immunohistochemistry in brain tissue sections, followed by mounting the sections on microscopic slides, manual imaging, and largely visual quantification. Nevertheless, over the last two decades a number of studies used these methods to test drug-evoked activity in the mouse or rat brain for various psychoactive medications, including antipsychotics, antidepressants, stimulants and anxiolytics (Engber et al., 1998; Kiss, 2018; Salminen et al., 1996; SEMBA et al., 1996; Slattery et al., 2005; Sumner et al., 2004).
In contrast to the older methods, the pharmacomapping method uses automated and standardized whole-brain immunostaining and brain clearing together with advanced microscopy (light-sheet fluorescence microscopy, LSFM), computational (e.g. machine learning) and statistical methods (FIG. 1). The first generation of this platform used serial two-photon tomography (STPT) as a method for imaging and c-fos-GFP mice expressing green fluorescent protein (GFP) under the control of the c-fos promoter (US 20140297199A1).

[4] = test system: patients with severe major depressive disorder; conditions: daily oral gaboxadol 5 mg or 10 mg with escitalopram 20 mg, 490 patients; cited from earlier work
[5] = 10 mg I.V., geometric mean N = 10
[6] = 10 mg Oral, geometric mean N = 10
[7] = acute single dose 10 mg/kg, 10 mg/kg

**Q.** Which results are given for `Oc1noc2c1CCNC2` [gaboxadol, 4,5,6,7-tetrahydroisoxazolo (5,4-c) pyridin-3-ol]?
**A.** effects in sleep onset and sleep maintenance (insomnia): failed to show significant effects; time spent in floating (immobility) during a 6 min forced swim (mouse): significantly reduced; time spent floating in forced swim (mouse; 1 hour after drug delivery): nearly identical behavioral effect as the ketamine group; time spent floating in forced swim (mouse; 24 hours after drug delivery): nearly identical behavioral effect as the ketamine group; fe ([1]; 2.5 mg single oral dose, geometric mean N = 10): 43%; AUC0-∞ ([1]; 2.5 mg single oral dose, geometric mean N = 10, potency adjusted): 90 ng·h/mL; Apparent t1/2 ([1]; 2.5 mg single oral dose): 1.5 h; Tmax ([1]; 2.5 mg single oral dose): 0.5 h; fe ([1]; 5 mg single oral dose, geometric mean N = 10): 45%; Apparent t1/2 ([1]; 5 mg single oral dose): 1.5 h; Tmax ([1]; 5 mg single oral dose): 0.6 h; AUC0-∞ [1, 5]: 380 ng·h/mL; fe [1, 5]: 53%; Apparent t1/2 ([1]; 10 mg I.V.): 1.5 h; CLR [1, 6]: 250 mL/min; fe [1, 6]: 53%; Apparent t1/2 ([1]; 10 mg Oral): 1.6 h; Tmax ([1]; 10 mg Oral): 0.5 h; fe ([1]; 15 mg single oral dose, geometric mean N = 10): 50%; Apparent t1/2 ([1]; 15 mg single oral dose): 1.5 h; Tmax ([1]; 15 mg single oral dose): 0.5 h; fe ([1]; 20 mg single oral dose, geometric mean N = 10): 53%; Apparent t1/2 ([1]; 20 mg single oral dose): 1.6 h; Tmax ([1]; 20 mg single oral dose): 0.6 h; dose proportionality of plasma AUC0-∞ and Cmax ([1]; dose range 2.5 to 20 mg oral): dose proportional increases; half-life (t1/2) ([1]; independent of dose across 2.5 to 20 mg oral): 1.5 h; whole head MEG planar gradiometer increase in combined delta, theta and alpha activity [2]: ≥ +3; drug-evoked brain activation (pharmacomap) ([3]; 3 mg/kg alone): neither gaboxadol at 3 mg/kg nor ketamine at 6 mg/kg alone evoked any brain activation detectable; drug-evoked brain activation (pharmacomap) [3, 7]: very similar brain activation as ketamine; drug-evoked brain activation (pharmacomap) ([3]; acute single dose 10 mg/kg, listed as Gaboxadol, 10 mg/kg): broad brain activation that is highly similar to that of ketamine; additional benefit in treatment of severe major depressive disorder [4]: no additional benefit

**Q.** For `CNC1(c2ccccc2Cl)CCCCC1=O` (centres unmarked) [ketamine], which “time spent in floating (immobility) during a 6 min forced swim” value (mouse) is on record?
**A.** significantly reduced

**Q.** What about the “time spent floating in forced swim” value (mouse; 1 hour after drug delivery) of the same compound?
**A.** significantly decreases

**Q.** And the “time spent floating in forced swim” value (mouse; 24 hours after drug delivery)?
**A.** significantly decreases

**Q.** What about the “drug-evoked brain activation (pharmacomap)” value (shortened to “drug-evoked brain activation”) ([3]; 6 mg/kg alone) of the same compound?
**A.** neither gaboxadol at 3 mg/kg nor ketamine at 6 mg/kg alone evoked any brain activation detectable

**Q.** And the “drug-evoked brain activation” value ([3]; acute single dose 5 mg/kg)?
**A.** modest activation

**Q.** What about the “drug-evoked brain activation” value [3, 7] of the same compound?
**A.** very robust and broad activation; also recorded: very broad activation pattern

**Q.** What about the “drug-evoked brain activation” value ([3]; acute single dose 100 mg/kg) of the same compound?
**A.** modest activation
